Laboratory results from patent US20130004481A1, “ANTICANCER THERAPY” (BOEHRINGER INGELHEIM INTERNATIONAL GMBH, priority 2011, published 2013).

Target: T1, wild type (wt)-Xenopus laevis Aurora B/INCENP complex (Xenopus laevis, UniProt Q6DE08)
T1 construct: Purified (wt)-Xenopus laevis Aurora B^60-361/INCENP^790-847 complex was stored at −80° C; GST (cleaved yes); made in house; host or cells: E. coli BL21(DE3) with pUBS520 helper plasmid
Assay: Radioactive kinase assay using wt Xenopus laevis Aurora B/INCENP complex
Format: biochemical
Conditions: 100 μM ATP
Protocol: Radioactive Kinase Assay Using a Wild Type (wt)-Xenopus laevis Aurora B/INCENP Complex:
The kinase assays are run in the presence of 100 μM ATP using 10 μM of a substrate peptide. pAUB-IN847 was used to transform the E. coli strain BL21(DE3) containing the pUBS520 helper plasmid. Both proteins and their mutants are expressed and purified under essentially identical conditions. Protein expression is induced with 0.3 mM IPTG at an OD600 of 0.45-0.7. Expression is then continued for about 12-16 hours at 23-25° C. with agitation. […] 20-30 ml lysis buffer are used per liter of E. coli culture. Cells are lysed by sonication, and the lysates cleared by centrifugation at 12000 rpm for 45-60 min on a JA20 rotor. The supernatants are incubated with 300 μl of GST Sepharose Fast Flow (Amersham Biosciences) per liter of bacterial culture. The resin is first washed with PBS buffer and finally equilibrated with lysis buffer. After a 4-5 hour agitation at 4° C., the beads are washed with 30 volumes of lysis buffer, and then equilibrated with 30 volumes of cleavage buffer (50 mM Tris pH 7.6, 150 mM NaCl, 1 mM DTT, 1 mM EDTA). To cleave the GST from Aurora B, 10 units of Prescission protease (Amersham Biosciences) per milligram of substrate are added and the incubation is protracted for 16 hours at 4° C. The supernatant, which contains the cleaved product, is collected and loaded onto a 6 ml Resource Q column (Amersham Biosciences) equilibrated with Ion Exchange buffer (50 mM Tris pH 7.6, 150 mM NaCl, 1 mM DTT, 1 mM EDTA). The Aurora B/INCENP complex is collected in the flow through of the column. The flow-through of the Resource Q column is concentrated and loaded onto a Superdex 200 size-exclusion chromatography (SEC) column equilibrated with SEC buffer (Tris HCl 10 mM pH 7.6, NaCl 150 mM, DTT 1 mM, EDTA 1 mM). […] The final yield is about 1-2 mg of pure complex per liter of bacteria.
Assay conditions: Enzyme activity was assayed in the presence or absence of serial inhibitor dilutions.
Data analysis: Inhibitor concentrations were transformed to logarithmic values and the raw data were normalized. These normalized values were used to calculate the IC50 values. […] Each microtiter plate contained internal controls, such as blank, maximum reaction and historical reference compound.

T1 sequence (Q6DE08 60-361): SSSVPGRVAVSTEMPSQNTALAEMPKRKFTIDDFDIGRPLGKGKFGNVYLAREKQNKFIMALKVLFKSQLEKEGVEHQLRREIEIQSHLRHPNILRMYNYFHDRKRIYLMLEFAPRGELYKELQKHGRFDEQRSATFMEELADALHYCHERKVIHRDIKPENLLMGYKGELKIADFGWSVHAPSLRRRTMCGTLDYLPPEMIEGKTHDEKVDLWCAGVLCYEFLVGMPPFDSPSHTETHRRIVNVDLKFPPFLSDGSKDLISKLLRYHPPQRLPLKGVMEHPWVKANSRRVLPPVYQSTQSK
T1 sequence (O13024 790-847 partner limits assumed): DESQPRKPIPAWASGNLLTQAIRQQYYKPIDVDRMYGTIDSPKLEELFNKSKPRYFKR

Structure (SMILES) | IC50
CCNC(=O)C#Cc1ccc2c(c1)NC(=O)/C2=C(\Nc1ccc(N2CCN(C)CC2)cc1)c1ccccc1 [Compound 1, N-ethyl-3-[3-[[4-(4-methylpiperazin-1-yl)anilino]-phenylmethylidene]-2-oxo-1H-indol-6-yl]prop-2-ynamide] | 2 nM
CN(C)Cc1ccc(N/C(=C2\C(=O)Nc3cc(C#CC(=O)NCC(F)F)ccc32)c2ccccc2)cc1 [Compound 2, N-(2,2-difluoroethyl)-3-[3-[[4-(dimethylaminomethyl)anilino]-phenylmethylidene]-2-oxo-1H-indol-6-yl]prop-2-ynamide] | 7 nM
O=C(C#Cc1ccc2c(c1)NC(=O)/C2=C(\Nc1ccc(CN2CCCC2)cc1)c1ccccc1)NCCF [Compound 4, N-(2-fluoroethyl)-3-[2-oxo-3-[phenyl-[4-(pyrrolidin-1-ylmethyl)anilino]methylidene]-1H-indol-6-yl]prop-2-ynamide] | 5 nM
O=C(C#Cc1ccc2c(c1)NC(=O)/C2=C(\Nc1ccc(CN2CCCC2)cc1)c1ccccc1)NCC(F)F [Compound 3, N-(2,2-difluoroethyl)-3-[2-oxo-3-[phenyl-[4-(pyrrolidin-1-ylmethyl)anilino]methylidene]-1H-indol-6-yl]prop-2-ynamide] | 4 nM
CCNC(=O)C#Cc1ccc2c(c1)NC(=O)/C2=C(\Nc1ccc(CN(C)C)cc1)c1ccccc1 [Compound 6, 3-[3-[[4-(dimethylaminomethyl)anilino]-phenylmethylidene]-2-oxo-1H-indol-6-yl]-N-ethylprop-2-ynamide] | 3 nM
